Assay results reported in patent US11021481B2, “Substituted isoindolin-1-ones and 2,3-dihydro-1h-pyrrolo[3,4-c]pyridin-1-ones as HPK1 antagonists” (Nimbus Saturn, Inc., priority 2019, dated 2021).
pIC50: −log10 of the molar value. Structures can show the parent of a compound that is named as a salt.

Target: HPK1 (Homo sapiens (Human), UniProt Q92918)
Test: HPK1 biochemical enzyme assay (microfluidic mobility shift assay)
Conditions: 1.5 nM HPK1, ATP 1 mM final, 30 min preincubation, 60 min at RT, Caliper EZ Reader; read-out: HPK1 1000UMATP caliper IC50
Outline: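 Mobility shift readout of HPK1 activity after a 60 min RT reaction with 1 mM ATP, 1 μM substrate and 5 mM MgCl2. Enzyme/substrate mix was first exposed to compounds for 30 min, using ten-point curves topping at 3 μM final.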

Chain of HPK1 (Q92918 whole entry): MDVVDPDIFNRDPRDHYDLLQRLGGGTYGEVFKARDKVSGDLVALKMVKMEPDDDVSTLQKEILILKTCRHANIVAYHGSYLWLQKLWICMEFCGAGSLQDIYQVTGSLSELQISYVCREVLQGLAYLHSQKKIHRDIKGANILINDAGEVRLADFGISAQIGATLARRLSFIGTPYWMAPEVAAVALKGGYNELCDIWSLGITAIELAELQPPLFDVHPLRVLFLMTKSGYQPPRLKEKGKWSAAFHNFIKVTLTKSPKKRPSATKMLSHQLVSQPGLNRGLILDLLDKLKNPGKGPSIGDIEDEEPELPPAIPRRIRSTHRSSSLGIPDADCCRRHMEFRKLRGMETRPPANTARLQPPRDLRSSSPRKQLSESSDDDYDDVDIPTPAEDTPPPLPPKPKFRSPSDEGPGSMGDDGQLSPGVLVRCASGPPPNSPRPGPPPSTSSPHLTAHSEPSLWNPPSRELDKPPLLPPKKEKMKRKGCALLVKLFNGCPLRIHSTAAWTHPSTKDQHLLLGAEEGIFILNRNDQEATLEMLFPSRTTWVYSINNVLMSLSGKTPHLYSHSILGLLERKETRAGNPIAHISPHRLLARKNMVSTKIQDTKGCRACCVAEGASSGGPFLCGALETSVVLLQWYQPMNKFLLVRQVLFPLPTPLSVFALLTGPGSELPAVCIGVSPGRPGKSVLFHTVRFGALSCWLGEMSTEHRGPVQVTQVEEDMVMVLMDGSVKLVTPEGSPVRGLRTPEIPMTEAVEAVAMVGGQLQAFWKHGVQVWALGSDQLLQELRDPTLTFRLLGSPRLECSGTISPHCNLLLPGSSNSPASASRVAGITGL

pIC50, > 7.00:
CCN(CC)Cc1nc(Nc2ccc(-c3cnc4cc(F)ccn34)c3c2C(=O)NC3)ccc1C1CCOC1 (centres unmarked) [I-504, 7-[[6-(diethylaminomethyl)-5-tetrahydrofuran-3-yl-2-pyridyl]amino]-4-(7-fluoroimidazo [1,2-a]pyridin-3-yl)isoindolin-1-one]
O=C1NCc2c(-c3cnc4cc(F)ccn34)ccc(Nc3ccc(C4CCOC4)c(CN4CCCC4)n3)c21 (centres unmarked) [I-505, 4-(7-fluoroimidazo [1,2-a]pyridin-3-yl)-7-[[6-(pyrrolidin-1-ylmethyl)-5-tetrahydrofuran-3-yl-2-pyridyl]amino]isoindolin-1-one]
CN1CCO[C@@]2(CCCN(c3ccc(Nc4ccc(-c5cnc6cc(F)ccn56)c5c4C(=O)NC5)nc3)C2)C1 [I-506, (S)-4-(7-fluoroimidazo [1,2-a]pyridin-3-yl)-7-((5-(4-methyl-1-oxa-4,8-diazaspiro[5.5]undecan-8-yl)pyridin-2-yl)amino)isoin-dolin-1-one]
CN1CCO[C@]2(CCCN(c3ccc(Nc4ccc(-c5cnc6cc(F)ccn56)c5c4C(=O)NC5)nc3)C2)C1 [I-506a, (R)-4-(7-fluoroimidazo [1,2-a]pyridin-3-yl)-7-((5-(4-methyl-1-oxa-4,8-diazaspiro[5.5]undecan-8-yl)pyridin-2-yl)amino)isoin-dolin-1-one]
O=C1NCc2c(-c3cnc4cc(F)ccn34)ccc(Nc3ccc(N4CCC[C@@]5(CNCCO5)C4)cn3)c21 [I-507, (R)-7-((5-(1-oxa-4,8-diazaspiro[5.5]undecan-8-yl)pyridin-2-yl)amino)-4-(7-fluoroimidazo [1,2-a]pyridin-3-yl)isoindolin-1-one]
O=C1NCc2c(-c3cnc4cc(F)ccn34)ccc(Nc3ccc(N4CCC[C@]5(CNCCO5)C4)cn3)c21 [I-508, (S)-7-((5-(1-oxa-4.8-diazaspiro[5.5]undecan-8-yl)pyridin-2-yl)amino)-4-(7-fluoroimidazo [1,2-a]pyridin-3-yl)isoindolin-1-one]
CN(C)C1COCCN(c2ccc(Nc3ccc(-c4cnc5cc(F)ccn45)c4c3C(=O)NC4)nc2)C1 (centres unmarked) [I-509, 7-[[5-[6-(dimethylami-no)-l,4-oxazepan-4-yl]-2-pyridyl]amino]-4-(7-fluoroimidazo [1,2-a]pyridin-3-yl)isoindolin-1-one Formic acid salt]
CCN(CC)Cc1nc(Nc2ccc(-c3cnc4cc(F)ccn34)c3c2C(=O)NC3)ccc1[C@H]1CCOC1 [I-510, (R)-7-((6-((diethylamino)-methyl)-5-(tetrahydrofuran-3-yl)pyridin-2-yl)amino)-4-(7-fluoroimidazo [1,2-a]pyridin-3-yl)isoindolin-1-one]
CCN(CC)Cc1nc(Nc2ccc(-c3cnc4cc(F)ccn34)c3c2C(=O)NC3)ccc1[C@@H]1CCOC1 [I-511, (S)-7-((6-((diethylamino)methyl)-5-(tetrahydrofuran-3-yl)pyridin-2-yl)amino)-4-(7-fluoroimidazo [1,2-a]pyridin-3-yl)isoindolin-1-one]
O=C1NCc2c(-c3cnc4cc(F)ccn34)ccc(Nc3ccc(N4CCO[C@H](Cn5ccnc5)C4)cn3)c21 [I-512, 4-(7-fluoroimidazo [1,2-a]pyridin-3-yl)-7-[[5-[(2S)-2-(imidazol-1-ylmethyl)mor-pholin-4-yl]-2-pyridyl]amino] isoindolin-1-one]
O=C1NCc2c(-c3cnc4cc(F)ccn34)ccc(Nc3ccc([C@H]4CCOC4)c(CN4CCCC4)n3)c21 [I-515, (R)-4-(7-fluoroimidazo [1,2-a]pyridin-3-yl)-7-((6-(pyrrolidin-1-ylmethyl)-5-(tetrahydrofuran-3-yl)pyridin-2-yl)amino)isoin-dolin-1-one]
O=C1NCc2c(-c3cnc4cc(F)ccn34)ccc(Nc3ccc([C@@H]4CCOC4)c(CN4CCCC4)n3)c21 [I-516, (S)-4-(7-fluoroimidazo [1,2-a]pyridin-3-yl)-7-((6-(pyrrolidin-1-ylmethyl)-5-(tetrahydrofuran-3-yl)pyridin-2-yl)amino)isoin-dolin-1-one]
CN(C)CC1COCCN1c1ccc(Nc2ccc(-c3cnc4cc(F)ccn34)c3c2C(=O)NC3)nc1 (centres unmarked) [I-517, 7-[ [5-[3-[(dimethylamino)-methyl]mor-pholin-4-yl]-2-pyridyl]amino]-4-(7-fluoroimidazo [1,2-a]pyridin-3-yl)isoindolin-1-one]
CN(C)[C@@H]1COCCN(c2ccc(Nc3ccc(-c4cnc5cc(F)ccn45)c4c3C(=O)NC4)nc2)C1 [I-518, (S)-7-((5-(6-(dimethylami-no)-1,4-oxazepan-4-yl)pyridin-2-yl)amino)-4-(7-fluoroimidazo [1,2-a]pyridin-3-yl)isoindolin-1-one]
CN(C)[C@H]1COCCN(c2ccc(Nc3ccc(-c4cnc5cc(F)ccn45)c4c3C(=O)NC4)nc2)C1 [I-519, (R)-7-((5-(6-(dimethylami-no)-1,4-oxazepan-4-yl)pyridin-2-yl)amino)-4-(7-fluoroimidazo [1,2-a]pyridin-3-yl)isoindolin-1-one]
C[C@@H](c1ccc(Nc2ccc(-c3cnc4cc(F)ccn34)c3c2C(=O)NC3)nc1)N(C)C [I-520, (S)-7-((5-(1-(dimethylami-no)ethyl)pyridin-2-yl)amino)-4-(7-fluoroimidazo [1,2-a]pyridin-3-yl)isoindolin-1-one]
C[C@H]1CN([C@@H](C)c2ccc(Nc3ccc(-c4cnc5cc(F)ccn45)c4c3C(=O)NC4)nc2)CCO1 [I-522, 4-(7-fluoroimidazo [1,2-a]pyridin-3-yl)-7-((5-((S)-1-((S)-2-methylmorpho-lino)ethyl)pyri-din-2-yl)amino) isoin-dolin-1-one]
C[C@H](c1ccc(Nc2ccc(-c3cnc4cc(F)ccn34)c3c2C(=O)NC3)nc1)N1CCO[C@@H](C)C1 [I-523, 4-(7-fluoroimidazo [1,2-a]pyridin-3-yl)-7-((5-((R)-1-((S)-2-methylmorpho-lino)ethyl)pyr-idin-2-yl)amino) isoin-dolin-1-one]
CN(C)Cc1nc(Nc2ccc(-c3cnc4cc(F)ccn34)c3c2C(=O)NC3)ccc1N1CCC[C@@H](O)C1 [I-524, 7-[[6-[(dimethylamino)-methyl]-5-[(3R)-3-hydroxy-1-piperipyl]-2-pyridyl]amino]-4-(7-fluoroimidazo [1,2-a]pyridin-3-yl)isoindolin-1-one]
CN(C)Cc1nc(Nc2ccc(-c3cnc4cc(F)ccn34)c3c2C(=O)NC3)ccc1N1CCOCC12CC2 [I-525, 7-[[6-[(dimethylamino)-methyl]-5-(7-oxa-4-azaspiro[2.5]octan-4-yl)-2-pyridyl]amino]-4-(7-fluoroimidazo [1,2-a]pyridin-3-yl)isoindolin-1-one]
C[C@@H](c1ccc(Nc2ccc(-c3cnc4cc(F)ccn34)c3c2C(=O)NC3)nc1)N1CCC(O)CC1 [I-526, (S)-4-(7-fluoroimidazo [1,2-a]pyridin-3-yl)-7-((5-(l-(4-hydroxypiperidin-1-yl)ethyl)pyridin-2-yl)amino)isoin-dolin-1-one]
C[C@H](c1ccc(Nc2ccc(-c3cnc4cc(F)ccn34)c3c2C(=O)NC3)nc1)N1CCC(O)CC1 [I-527, (R)-4-(7-fluoroimidazo [1,2-a]pyridin-3-yl)-7-((5-(1-(4-hydroxypiperidin-1-yl)ethyl)pyridin-2-yl)amino)isoin-dolin-1-one]
C[C@@H]1COCCN1c1ccc(Nc2ccc(-c3cnc4cc(F)ccn34)c3c2C(=O)NC3)nc1CN(C)C [I-528, 7-[[6-[(dimethylamino)-methyl]-5-[(3R)-3-methylmorpho-lin-4-yl J-2-pyridyl]amino]-4-(7-fluoroimidazo [1,2-a]pyridin-3-yl)isoindolin-1-one Formic acid salt]
C[C@H]1CN(c2ccc(Nc3ccc(-c4cnc5cc(F)ccn45)c4c3C(=O)NC4)nc2CN(C)C)CCO1 [I-529, 7-[[6-[(dimethylamino)-methyl]-5-[(2S)-2-methylmorpho-lin-4-yl]-2-pyridyl]amino]-4-(7-fluoroimidazo [1,2-a]pyridin-3-yl)isoindolin-1-one Bis formic acid salt]
CN(C)Cc1nc(Nc2ccc(-c3cnc4cc(F)ccn34)c3c2C(=O)NC3)ccc1N1CCOC2(CC2)C1 [I-530, 7-[[6-[(dimethylamino)-methyl]-5-(4-oxa-7-azaspiro[2.5]octan-7-yl)-2-pyridyl]amino]-4-(7-fluoroimidazo [1,2-a]pyridin-3-yl)isoindolin-1-one Formic acid salt]
C[C@H]1COCCN1c1ccc(Nc2ccc(-c3cnc4cc(F)ccn34)c3c2C(=O)NC3)nc1CN(C)C [I-531, 7-[[6-[(dimethylamino)-methyl]-5-[(3S)-3-methylmorpho-lin-4-yl]-2-pyridyl]amino] 4-(7-fluoroimidazo [1,2-a]pyridin-3-yl)isoindolin-1-one]
CN(C)Cc1nc(Nc2ccc(-c3cnc4cc(F)ccn34)c3c2C(=O)NC3)ccc1N1CCC[C@H](O)C1 [I-532, 7-[[6-[(dimethylamino)-methyl]-5-[(3S)-3-hydroxy-1-piperipyl]-2-pyridyl]amino]-4-(7-fluoroimidazo [1,2-a]pyridin-3-yl)isoindolin-1-one]
CN(C)Cc1nc(Nc2ccc(-c3cnc4cc(F)ccn34)c3c2C(=O)NC3)ccc1O[C@@H]1CCOC1 [I-533]
CN(C)Cc1nc(Nc2ccc(-c3cnc4cc(F)ccn34)c3c2C(=O)NC3)ccc1N1CCC(=O)N(C)CC1 [I-534, 7-[[6-[(dimethylamino)-methyl]-5-(4-methyl-5-oxo-1,4-diazepan-1-yl)-2-pyridyl]amino]-4-(7-fluoroimidazo [1,2-a]pyridin-3-yl)isoindolin-1-one Formic acid salt]
